Values of other authors as cited in US6844014B1, “Herbal healing lotion for veterinary use” (priority 2002, dated 2005).

Conditions: treatment by previous veterinarian before the office visit

C[C@]12CCC(=O)C=C1CC[C@@H]1[C@@H]2C(=O)C[C@@]2(C)[C@H]1CC[C@]2(O)C(=O)CO [cortisone]
result of previous treatment of the lesion: no positive result was obtained
